Like-named read-outs stand apart in the source and are kept apart here.
Experiments:
[1] = target: Biotinylated KRAS G12C protein (Homo sapiens (Human), UniProt P01116, C118S/C51S/C80L/G12C); experiment: SOS-catalyzed nucleotide exchange assay (TR-FRET); type: biochemical; settings: in vitro apparent potency; preincubation time of 60 minutes prior to addition of SOS
Description: The SOS-catalyzed nucleotide exchange assay utilizes a preformed complex of recombinant biotinylated KRAS protein containing G12C/C51S/C80L/C118S mutations (183 amino acids; biotin on K10; leader sequence which is an AviTag; referred to as SEQ ID NO: 1 or “Biotinylated KRAS G12C protein” hereafter), Bodipy-GDP, and Terbium-streptavidin. Compounds are added to this complex and then after incubation for 60 minutes, the mixture is treated with recombinant SOS protein and unlabeled GTP. Small molecule inhibitors stabilize the Bodipy-GDP complex whereas the untreated protein rapidly exchanges Bodipy-GDP for unlabeled GTP resulting in reduced TR-FRET signal.
Biotinylated KRAS G12C protein (SEQ ID NO: 1) is diluted to 2 μM in an EDTA buffer (20 mM HEPES, 150 mM sodium chloride, 10 mM EDTA, and 0.01% Tween) and incubated at room temperature for one hour. This mixture is then further diluted to 90 nM in an assay buffer (20 mM HEPES, 150 mM sodium chloride, 10 mM magnesium chloride, and 0.005% Tween) containing 15 nM of Terbium-Streptavidin (Invitrogen, catalog #PV3577) and 900 nM of Bodipy-GDP and incubated at room temperature for six hours. This solution is referred to as Biotinylated KRAS G12C mixture.
Each test compound (10 mM stock in DMSO) is diluted in DMSO to make a 10-point, 3-fold dilution series in a 384-well low dead volume microplate (Labcyte, catalog #LP-0200). Once titrations are made, 10 nL of the diluted compounds is acoustically dispensed into a 384-well plate (Corning, catalog #3820) using an Echo 550 (Labcyte).
Each well of the plate receives 3 μL Biotinylated KRAS G12C mixture that had been incubating for six hours and 3 μL of assay buffer using a BioRAPTR (Beckman Coulter) and is incubated at room temperature for 60 minutes. Each well then receives 3 μL of 240 nM recombinant human SOS protein and 9 mM GTP (Sigma, G8877) in assay buffer and is incubated at room temperature for 60 minutes.
The time-resolved fluorescence resonance energy transfer signal of the plate is measured on an Envision (PerkinElmer) plate reader: Excitation filter=340 nm; emission1=495 nm; emission2=520 nm; dichroic mirror=D400/D505; delay time=100 μs. The signal of each well is determined as the ratio of the emission at 520 nm to that at 495 nm. Percent effect of each well is determined after normalization to control wells containing DMSO (no effect) or a saturating concentration of inhibitor (max effect). The apparent effect as a function of compound concentration is fit to a four parameter logistic equation.

[2] = tested on: phospho-ERK; experiment: Cellular phospho-ERK assay; type: cell-based; settings: NCI-H358 cells, 2 hour incubation, ratio of p-Erk vs total Erk, read-out: IC50 (nM) pERK (Cell)
Description: NCI-H358 cells (ATCC® CRL-5807™) were cultured in T150 flask in growth medium (RPMI medium 1640-GlutaMAX™-I (ThermoFisher Scientific 61870) containing 10% fetal bovine serum (ThermoFisher Scientific 10091148)). The cells were harvested in growth medium after TrypLE (ThermoFisher scientific 12604021) digestion and were seeded in a 384-well collagen coated cell culture plate (Corning 356702) at a density of 15,000 cells/well, and incubated at 37° C., 5% CO2 overnight. The compound dose-response titrations were prepared and appropriate amounts of compounds were dispensed in a 384-well intermediate plate using an Echo 550 liquid handler. RPMI medium 1640-GlutaMAX™-I were added to the intermediate plate and transferred to 384-well cell culture plate, which was incubated at 37° C., 5% CO2 for 2 hours. After removal of medium from the plate, cells were lysed in lysis buffer from Alpha SureFire® Ultra™ Multiplex p-Erk and total Erk assay kit (PerkinElmer MPSU-PTERK) containing Halt™ Protease and Phosphotase inhibitor cocktail (ThermoFisher Scientific 78446) at room temperature with constant shaking at 300 rpm for 30 minutes. The cell lysates were then transferred to OptiPlate-384 plate (PerkinElmer 6005620) and the phosphorylation of Erk and total Erk levels were detected by Alpha SureFire Ultra Multiplex p-Erk kit (PerkinElmer MPSU-PTERK) following the manufacturer's protocol. Assay plates were read on an EnVision Multimode Plate Reader (PerkinElmer), and the ratio of p-Erk vs total Erk in each well was used as the final readout. Dose response curves were analyzed using a 4-parameter logistic model to calculate IC50 values using spotfire software.

Molecule | IC50 [1] [nM] | IC50 [2] [nM] | IC50 ([2]; Homo sapiens, NCI-H358, 2 h) [nM]
17,20-difluoro-2-[(2S)-2-methyl-4-(prop-2-enoyl)piperazin-1-yl]-6-(propan-2-yl)-10,11,12,13-tetrahydro-4H-1,18-ethenopyrido[4,3-e]pyrimido[1,6-g][1,7,9]benzotriazacyclododecin-4-one [Example 112] | 23 | 26 | 
17,20-difluoro-6-(propan-2-yl)-2-[4-(prop- 2-enoyl)-2-(2,2,2-trifluoroethyl)piperazin- 1-yl]-11,12-dihydro-4H,10H-1,18- (ethanediylidene)pyrido[4,3- e]pyrimido[1,6-g][1,7,9] benzoxadiazacyclododecin-4-one [Example 101] | 29 | 137 | 
17,20-difluoro-12-hydroxy-2-[(2S)-2-methyl-4-(prop-2-enoyl)piperazin-1-yl]-6-(propan-2-yl)-10,11,12,13-tetrahydro-4H-1,18-ethenopyrido[3,4-e]pyrimido[6,1-c][2,4]benzodiazacyclododecin-4-one [Example 118-1] | 192 | 651 | 
C=CC(=O)N1C[C@H](C)N(c2nc(=O)n3c4nc(c(Cl)cc24)-c2c(F)cccc2OCCc2ccnc(C(C)C)c2-3)C[C@H]1C (atropisomer, axis not shown) [Example 119, 19-chloro-2-[(2S,5R)-2,5-dimethyl-4-(prop-2-enoyl)piperazin-1-yl]-16-fluoro-6-(propan-2-yl)-10,11-dihydro-4H-1,17-ethenopyrido[4,3-d]pyrimido[1,6-f][1,6,8]benzoxadiazacycloundecin-4-one] | 2.6 | 5.1 | 
C=CC(=O)N1CCN(c2nc(=O)n3c4nc(c(F)cc24)-c2cccnc2OCCCOc2ccnc(C(C)C)c2-3)[C@@H](C)C1 (single isomer, unassigned) [Example 2a] | 2680 |  | 13900
C=CC(=O)N1CCN(c2nc(=O)n3c4nc(c(F)cc24)-c2c(F)cccc2OCCCCc2ccnc(C(C)C)c2-3)[C@@H](C)C1 (single isomer, unassigned) [Example 4a] | 2.4 | 1.5 | 
C=CC(=O)N1CCN(c2nc(=O)n3c4nc(c(F)cc24)-c2c(F)cccc2OCCCc2ccnc(C(C)C)c2-3)[C@@H](C)C1 (single isomer, unassigned) [Example 10a] | 4.3 | 6.7 | 
C=CC(=O)N1CCN(c2nc(=O)n3c4nc(c(F)cc24)-c2c(F)cccc2OCCCc2ccnc(C(C)C)c2-3)[C@@H](C)C1 (single isomer, unassigned) [Example 10b] | 2590 | 4380 | 
C=CC(=O)N1CCN(c2nc(=O)n3c4nc(c(F)cc24)-c2c(F)cccc2OCCCc2ccnc(C(C)C)c2-3)C[C@@H]1CC#N (single isomer, unassigned) [Example 11a] | 19 |  | 395
C=CC(=O)N1CCN(c2nc(=O)n3c4nc(c(F)cc24)-c2c(F)cccc2OCCOc2ccnc(C(C)C)c2-3)[C@@H](C)C1 (single isomer, unassigned) [Example 12a] | 3.9 |  | 6.9
C=CC(=O)N1C[C@H](C)N(c2nc(=O)n3c4nc(c(F)cc24)-c2c(F)cccc2OCC(F)(F)COc2ccnc(C(C)C)c2-3)C[C@H]1C (single isomer, unassigned) [Example 13a] | 7.2 | 27 | 
C=CC(=O)N1C[C@H](C)N(c2nc(=O)n3c4nc(c(F)cc24)-c2c(F)cccc2OCC(F)(F)COc2ccnc(C(C)C)c2-3)C[C@H]1C (single isomer, unassigned) [Example 13b] | 8530 | 22100 | 
C=CC(=O)N1C[C@H](C)N(c2nc(=O)n3c4nc(c(F)cc24)-c2c(F)cccc2OCCOc2ccnc(C(C)C)c2-3)C[C@H]1C (single isomer, unassigned) [Example 15a] | 6.5 |  | 11
C=CC(=O)N1CCN(c2nc(=O)n3c4nc(c(F)cc24)-c2c(F)cccc2OCCCCc2cnc(C(C)C)c-3c2)[C@@H](C)C1 (single isomer, unassigned) [Example 16a] | 9.8 | 79 | 
C=CC(=O)N1CCN(c2nc(=O)n3c4nc(c(F)cc24)-c2c(F)cccc2C(=O)NCCCc2ccnc(C(C)C)c2-3)[C@@H](C)C1 (single isomer, unassigned) [Example 19a] | 6.8 | 117 | 
C=CC(=O)N1CCN(c2nc(=O)n3c4nc(c(F)cc24)-c2c(F)cccc2CCCOc2ccnc(C(C)C)c2-3)[C@@H](C)C1 (single isomer, unassigned) [Example 20a] | 12 | 30 | 
C=CC(=O)N1CCN(c2nc(=O)n3c4nc(c(F)cc24)-c2c(F)cccc2CCCOc2ccnc(C(C)C)c2-3)[C@@H](C)C1 (single isomer, unassigned) [Example 20b] | 1380 | 4760 | 
C=CC(=O)N1C[C@H](C)N(c2nc(=O)n3c4nc(c(F)cc24)-c2c(F)cccc2OC(C)CCc2ccnc(C(C)C)c2-3)C[C@H]1C (single isomer, unassigned) [Example 81] | 2.9 |  | 21
C=CC(=O)N1C[C@H](C)N(c2nc(=O)n3c4nc(c(F)cc24)-c2c(F)cccc2OCCCCc2cnc(C(C)C)c-3c2C)C[C@H]1C (single isomer, unassigned) [Example 89] | 71 | 4160 | 
C=CC(=O)N1C[C@H](C)N(c2nc(=O)n3c4nc(c(F)cc24)-c2c(ccc(F)c2F)OCCC(C)c2ccnc(C(C)C)c2-3)C[C@H]1C (single isomer, unassigned) [Example 91] | 113 |  | 410
C=CC(=O)N1CCN(c2nc(=O)n3c4nc(c(F)cc24)-c2cccc4cnn(c24)CCCc2ccnc(C(C)C)c2-3)[C@@H](C)C1 (single isomer, unassigned) [Example 117] | 17 | 44 | 
C=CC(=O)N1C[C@H](C)N(c2nc(=O)n3c4nc(c(C)cc24)-c2c(F)ccc(F)c2OCCCc2ccnc(C(C)C)c2-3)C[C@H]1C (single isomer, unassigned) [Example 120] | 4.3 | 11 | 
C=CC(=O)N1CCN(c2nc(=O)n3c4nc(c(F)cc24)-c2c(F)cccc2OCCCOc2ccnc(C(C)C)c2-3)[C@@H](C)C1 [Example 1a, 18,21-difluoro-2-[(2S)-2-methyl-4-(prop-2-enoyl)piperazin-1-yl]-6-(propan-2-yl)-12,13-dihydro-4H,11H-1,19-ethenopyrido[4,3-f]pyrimido[1,6-h][1,5,8,10]benzodioxadiazacyclotridecin-4-one] | 11 | 21 | 
C=CC(=O)N1CCN(c2nc(=O)n3c4nc(c(F)cc24)-c2cccc4cnn(c24)CCCOc2ccnc(C(C)C)c2-3)[C@@H](C)C1 [Example 3a, 22-fluoro-2-[(2S)-2-methyl-4-(prop-2-enoyl)piperazin-1-yl]-6-(propan-2-yl)-12,13-dihydro-4H,11H-1,20-ethenopyrido[4′,3′:2,3]pyrimido[1′,6′:4,5][1,4,6,10]oxatriazacyclotridecino[8,9,10-hi]indazol-4-one] | 4420 | 19100 | 

From patent US20240043448A1, “Small Molecule Inhibitors of KRAS G12C Mutant” (Merck Sharp & Dohme LLC, priority 2019, published 2024)
